Experimental data: US10994015B2, “EGFR proteolysis targeting chimeric molecules and associated methods of use” (Arvinas Operations, Inc., priority 2016, dated 2021)

How the values were obtained:
[1] = molecular target: EGFR Exon20NPG (Homo sapiens (Human), UniProt P00533, INS770NPG); assay: TR-FRET assay for ERBB kinases; type: biochemical; settings: geometric mean if measured more than once
In short: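 Phosphorylation of fluorescein-labeled poly-GluTyr read as TR-FRET using Tb-pY20 antibody after EDTA stop, with 340 nm excitation. Kinase reaction ran 10 min at room temperature following 10 min compound pre-incubation; substrate mix held 3 mM ATP and 30 µM peptide before addition. Buffer was HEPES pH 7.5.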

[2] = molecular target: EGFR L858R/T790M (Homo sapiens (Human), UniProt P00533, L858R/T790M); assay: TR-FRET assay for ERBB kinases; type: biochemical; settings: geometric mean if measured more than once
EGFR L858R/T790M, sequence (P00533 25-1210 T790M/L858R): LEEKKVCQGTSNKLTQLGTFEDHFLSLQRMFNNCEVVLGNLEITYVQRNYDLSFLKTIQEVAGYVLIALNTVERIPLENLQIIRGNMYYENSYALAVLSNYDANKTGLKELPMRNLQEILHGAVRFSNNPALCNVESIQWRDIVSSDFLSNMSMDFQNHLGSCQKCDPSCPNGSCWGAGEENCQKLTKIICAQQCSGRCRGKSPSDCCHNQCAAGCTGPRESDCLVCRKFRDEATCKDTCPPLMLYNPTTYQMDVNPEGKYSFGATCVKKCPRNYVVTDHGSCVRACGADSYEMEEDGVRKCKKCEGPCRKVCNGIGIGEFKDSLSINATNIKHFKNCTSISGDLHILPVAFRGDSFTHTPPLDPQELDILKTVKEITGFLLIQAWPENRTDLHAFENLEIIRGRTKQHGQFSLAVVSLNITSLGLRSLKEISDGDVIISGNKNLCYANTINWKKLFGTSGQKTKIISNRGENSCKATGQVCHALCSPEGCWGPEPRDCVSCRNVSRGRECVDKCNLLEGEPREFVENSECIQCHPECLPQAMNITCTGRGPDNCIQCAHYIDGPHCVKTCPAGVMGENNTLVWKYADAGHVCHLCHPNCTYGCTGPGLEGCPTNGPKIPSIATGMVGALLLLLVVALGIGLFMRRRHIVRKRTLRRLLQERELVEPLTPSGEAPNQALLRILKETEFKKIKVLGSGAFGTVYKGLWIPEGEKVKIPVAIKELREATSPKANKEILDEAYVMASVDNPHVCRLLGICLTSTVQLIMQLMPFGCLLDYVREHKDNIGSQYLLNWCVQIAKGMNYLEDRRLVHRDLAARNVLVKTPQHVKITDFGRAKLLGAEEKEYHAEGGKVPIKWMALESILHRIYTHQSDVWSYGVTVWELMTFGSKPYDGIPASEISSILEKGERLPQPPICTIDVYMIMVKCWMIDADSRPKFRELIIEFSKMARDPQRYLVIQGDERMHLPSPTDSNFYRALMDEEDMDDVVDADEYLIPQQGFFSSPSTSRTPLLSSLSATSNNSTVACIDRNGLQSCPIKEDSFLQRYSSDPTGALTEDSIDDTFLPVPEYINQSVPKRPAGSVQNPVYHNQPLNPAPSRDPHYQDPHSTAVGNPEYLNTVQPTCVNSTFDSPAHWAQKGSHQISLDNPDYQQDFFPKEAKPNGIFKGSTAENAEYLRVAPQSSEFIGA
In short: (§1)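 Three-fold DMSO dilution series of each compound is diluted 10-fold into HEPES buffer (pH 7.5, NaCl, MgCl2, DTT, Pluronic). Enzyme is added for a 10 min pre-incubation. ATP/peptide mix (3 mM ATP, 30 uM substrate as added) starts a 10 min room-temperature reaction, halted with EDTA and Tb antibody.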

[3] = molecular target: EGFR WT (Homo sapiens (Human), UniProt P00533); assay: TR-FRET assay for ERBB kinases; type: biochemical; settings: geometric mean if measured more than once
EGFR WT, sequence (P00533 25-1210): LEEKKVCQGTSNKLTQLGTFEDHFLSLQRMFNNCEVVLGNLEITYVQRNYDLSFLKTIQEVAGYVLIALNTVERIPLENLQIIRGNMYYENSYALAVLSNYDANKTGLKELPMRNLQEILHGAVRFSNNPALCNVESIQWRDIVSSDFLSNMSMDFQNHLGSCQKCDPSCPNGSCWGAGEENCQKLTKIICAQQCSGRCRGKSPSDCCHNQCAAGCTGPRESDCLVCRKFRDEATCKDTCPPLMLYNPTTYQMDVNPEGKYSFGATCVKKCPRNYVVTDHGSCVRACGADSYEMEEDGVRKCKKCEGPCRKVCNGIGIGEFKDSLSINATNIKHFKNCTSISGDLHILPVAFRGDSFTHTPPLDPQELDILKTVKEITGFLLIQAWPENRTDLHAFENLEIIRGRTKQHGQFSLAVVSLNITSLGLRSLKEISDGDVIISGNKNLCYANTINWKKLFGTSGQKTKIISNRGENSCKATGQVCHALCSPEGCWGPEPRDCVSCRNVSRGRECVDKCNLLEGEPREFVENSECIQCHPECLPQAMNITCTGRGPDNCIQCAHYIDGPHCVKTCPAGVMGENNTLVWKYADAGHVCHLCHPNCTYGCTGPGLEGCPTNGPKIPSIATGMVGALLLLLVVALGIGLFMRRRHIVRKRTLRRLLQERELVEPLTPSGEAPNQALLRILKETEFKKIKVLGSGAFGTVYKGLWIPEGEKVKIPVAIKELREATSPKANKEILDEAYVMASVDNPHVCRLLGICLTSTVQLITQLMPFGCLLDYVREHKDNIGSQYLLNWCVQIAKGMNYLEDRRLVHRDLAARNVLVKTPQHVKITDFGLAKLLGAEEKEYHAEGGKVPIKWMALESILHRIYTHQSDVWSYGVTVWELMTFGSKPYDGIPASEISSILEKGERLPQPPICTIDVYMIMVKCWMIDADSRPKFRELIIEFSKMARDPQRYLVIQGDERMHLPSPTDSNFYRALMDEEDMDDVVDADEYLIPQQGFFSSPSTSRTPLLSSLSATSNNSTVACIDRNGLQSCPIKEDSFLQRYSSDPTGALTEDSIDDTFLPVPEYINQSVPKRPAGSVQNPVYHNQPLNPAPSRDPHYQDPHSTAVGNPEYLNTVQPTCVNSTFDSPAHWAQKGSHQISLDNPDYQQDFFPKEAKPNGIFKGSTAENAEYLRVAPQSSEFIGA
In short: as §1

[4] = molecular target: EGFR L858R/T790M/C797S (Homo sapiens (Human), UniProt P00533, C797S/L858R/T790M); assay: TR-FRET assay for ERBB kinases; type: biochemical; settings: geometric mean if measured more than once
In short: as §1

[5] = molecular target: EGFR L858R/T790M/C797S triple mutant (H520*) (Homo sapiens (Human), UniProt P00533, C797S/L858R/T790M); assay: EGFR protein degradation assay (Western blot); type: cell-based; settings: 72 hours, 300 nM to 10 nM
Description: EGFR Protein Degradation assay
Cells were incubated overnight at 37° C., 5% CO2 prior to compound addition. A 10 mM compound stock in DMSO was serially diluted in DMSO to provide the following stock concentrations: 1, 0.3, 0.1, 0.03 and 0.01 mM. An appropriate volume of each compound dilution, together with a DMSO vehicle control, was added to media to provide a 2× compound solution. […] At the end of the compound treatment, cells were washed once with ice-cold phosphate-buffered saline (PBS) and treated with lysis solution (1× lysis buffer, Cell Signaling Technologies (CST #9803) supplemented with Piarce™ protease inhibitors, #A32953, Thermo Fisher Scientific, TFS). Lysates were collected and clarified of cell debris by spinning at 10K rpm for 10 minutes. A specific volume of supernatant was retrieved for protein quantification (Pierce™ BCA kit, TFS #23225) and for Western analysis. Loading buffer supplemented with EDTA and reducing agent was added to each supernatant. A specific volume of supernatant (determined by protein assay: […] loaded per sample) was loaded into a NuPAGE™ 4-12% Bis-Tris gel (TFS). Samples were run at 165V in MOPS running buffer for 2 hours and then transferred to PVDF blotting membrane using a dry blotting system (iBlot2, TFS). Membranes were blocked in Tris-buffered saline supplemented with Tween, 0.1% (TBST) containing 5% non-fat dry milk, (AmericanBio). Following block, membranes were washed once with TBST. […] Membranes were washed 3× with TBST prior to addition of secondary antibody (1:10 000, anti-rabbit HRP-linked, CST #7074) in TBST with 3% BSA and then incubated at room temperature for one hour. Membranes were then washed 3× with TBS and signal developed by exposure to developer (SuperSignal West Femto, TFS) for 5 minutes. Membranes were then immediately imaged using a BioRad Chemidoc.

[6] = molecular target: EGFR L858R/T790M double mutant (H1975) (Homo sapiens (Human), UniProt P00533, L858R/T790M); assay: EGFR protein degradation assay (Western blot); type: cell-based; settings: 72 hours, 300 nM to 10 nM
EGFR L858R/T790M double mutant (H1975), sequence (P00533 25-1210 T790M/L858R): as the sequence (P00533 25-1210 T790M/L858R) above
In short: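 EGFR protein levels were measured by immunoblotting. Lysate protein was quantified by BCA, and 10 μg per sample was separated by SDS/PAGE at 165V for 2 hours and transferred to PVDF. Membranes were blocked in TBS-T with 5% milk for 1 hour, probed overnight at 4° C with EGFR and tubulin antibodies, then secondary antibody for 1 hour, and detected by ECL on a Chemidoc.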

EGFR Exon20NPG, sequence (P00533 other isoform, or with tags, fused parts or gaps del 1-694/ins NPG behind 770 limits assumed): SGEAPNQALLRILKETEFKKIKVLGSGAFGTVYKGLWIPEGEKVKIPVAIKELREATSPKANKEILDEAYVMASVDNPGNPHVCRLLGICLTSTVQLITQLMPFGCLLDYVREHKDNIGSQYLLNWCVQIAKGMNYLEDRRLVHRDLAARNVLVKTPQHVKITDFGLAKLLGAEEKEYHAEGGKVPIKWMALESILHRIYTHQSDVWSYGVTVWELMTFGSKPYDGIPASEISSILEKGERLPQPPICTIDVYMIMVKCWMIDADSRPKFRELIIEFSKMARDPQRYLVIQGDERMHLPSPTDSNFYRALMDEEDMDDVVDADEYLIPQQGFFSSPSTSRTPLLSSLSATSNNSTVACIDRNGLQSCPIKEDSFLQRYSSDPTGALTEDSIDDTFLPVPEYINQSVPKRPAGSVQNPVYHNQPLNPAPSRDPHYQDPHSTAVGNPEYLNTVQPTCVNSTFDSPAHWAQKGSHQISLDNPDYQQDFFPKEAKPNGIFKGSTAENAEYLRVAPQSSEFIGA

Row | SMILES | IC50 [1] | IC50 [2] | IC50 [3] | IC50 [4] | EGFR protein remaining, EGFR L858R/T790M/C797S triple mutant [5] | EGFR protein remaining, EGFR L858R/T790M double mutant [6]
1 | COC1CCN(c2nccc(Nc3cc4c(cn3)nc(COCCOCCN3CCN(CCCCc5ccc6c(c5)C(=O)N(C5CCC(=O)NC5=O)C6=O)CC3)n4C(C)C)n2)CC1 (stereo not drawn) [compound 87] | 14 µM | 15 µM | > 30 µM | 3.3 µM | C (>80% EGFR protein remaining after 72 hours of incubation with the test compound at a concentration of 300 nM) | C (>80% EGFR protein remaining after 72 hours of incubation with the test compound at a concentration of 300 nM)
2 | O=C1CCC(N2C(=O)c3ccc(N4CCN(CCCOCCCC#Cc5cccc6c5C(=O)N(C(C(=O)Nc5nccs5)c5cc(F)ccc5O)C6)CC4)cc3C2=O)C(=O)N1 (stereo not drawn) [compound 95] | 3.3 µM | 6.7 µM | 4.2 µM | 2.2 µM | C (>80% EGFR protein remaining after 72 hours of incubation with the test compound at a concentration of 300 nM) | C (>80% EGFR protein remaining after 72 hours of incubation with the test compound at a concentration of 300 nM)
3 | O=C1CCC(N2C(=O)c3cccc(NCCOCCOCCOCC#Cc4cccc5c4C(=O)N([C@@H](C(=O)Nc4nccs4)c4cc(F)ccc4O)C5)c3C2=O)C(=O)N1 (stereo partly drawn) [compound 265] | 20 µM | 27 µM | 3.6 µM | 0.29 µM | C (>80% EGFR protein remaining after 72 hours of incubation with the test compound at a concentration of 300 nM) | C (>80% EGFR protein remaining after 72 hours of incubation with the test compound at a concentration of 300 nM)
4 | Cc1ncsc1-c1ccc(CNC(=O)[C@@H]2C[C@@H](O)CN2C(=O)[C@@H](NC(=O)COCCOCCOCCOCCOCC#Cc2cccc3c2C(=O)N(C(C(=O)Nc2nccs2)c2cc(F)ccc2O)C3)C(C)(C)C)cc1 (stereo partly drawn) [compound 255] | 4.7 µM | 0.83 µM | 0.58 µM | 0.14 µM | B (≤80% and >50% EGFR protein remaining after 72 hours of incubation with the test compound at a concentration between 300 nM and 10 nM) | C (>80% EGFR protein remaining after 72 hours of incubation with the test compound at a concentration of 300 nM)
5 | Cc1ncsc1-c1ccc(CNC(=O)[C@@H]2C[C@@H](O)CN2C(=O)[C@H](C(C)C)N2Cc3ccccc3C2=O)c(OCCOCCOCCOCC#Cc2cccc3c2C(=O)N([C@@H](C(=O)Nc2nccs2)c2cc(F)ccc2O)C3)c1 [compound 258] | 4.9 µM | 5.9 µM | 1.7 µM | 4 µM | C (>80% EGFR protein remaining after 72 hours of incubation with the test compound at a concentration of 300 nM) | C (>80% EGFR protein remaining after 72 hours of incubation with the test compound at a concentration of 300 nM)
6 | Cc1ncsc1-c1ccc(CNC(=O)[C@@H]2C[C@@H](O)CN2C(=O)[C@@H](NC(=O)COCCOCCOCCOCC#Cc2cccc3c2C(=O)N(C(C(=O)Nc2nccs2)c2cc(F)ccc2O)C3)C(C)(C)C)cc1 (stereo partly drawn) [compound 254] | 5.7 µM | 1 µM | 1.1 µM | 0.1 µM | C (>80% EGFR protein remaining after 72 hours of incubation with the test compound at a concentration of 300 nM) | C (>80% EGFR protein remaining after 72 hours of incubation with the test compound at a concentration of 300 nM)
7 | O=C1CCC(N2C(=O)c3ccc(OCCOCCOCC#Cc4cccc5c4C(=O)N([C@@H](C(=O)Nc4nccs4)c4cc(F)ccc4O)C5)cc3C2=O)C(=O)N1 (stereo partly drawn) [compound 261] | 4.9 µM | 3.5 µM | 2.2 µM | 0.18 µM | C (>80% EGFR protein remaining after 72 hours of incubation with the test compound at a concentration of 300 nM) | C (>80% EGFR protein remaining after 72 hours of incubation with the test compound at a concentration of 300 nM)
8 | O=C1CCC(N2C(=O)c3cccc(NCCOCCOCCOCCOCC#Cc4cccc5c4C(=O)N([C@@H](C(=O)Nc4nccs4)c4cc(F)ccc4O)C5)c3C2=O)C(=O)N1 (stereo partly drawn) [compound 266] | > 30 µM | > 30 µM | 10 µM | 2.6 µM | C (>80% EGFR protein remaining after 72 hours of incubation with the test compound at a concentration of 300 nM) | C (>80% EGFR protein remaining after 72 hours of incubation with the test compound at a concentration of 300 nM)
9 | O=C1CCC(N2C(=O)c3ccc(OCCOCCOCCOCCOCC#Cc4cccc5c4C(=O)N([C@@H](C(=O)Nc4nccs4)c4cc(F)ccc4O)C5)cc3C2=O)C(=O)N1 (stereo partly drawn) [compound 262] | 7.4 µM | 0.43 µM | 3.7 µM | 0.25 µM | C (>80% EGFR protein remaining after 72 hours of incubation with the test compound at a concentration of 300 nM) | C (>80% EGFR protein remaining after 72 hours of incubation with the test compound at a concentration of 300 nM)
10 | Cc1ncsc1-c1ccc(CNC(=O)[C@@H]2C[C@@H](O)CN2C(=O)[C@H](C(C)C)N2Cc3ccccc3C2=O)c(OCCOCCOCC#Cc2cccc3c2C(=O)N([C@@H](C(=O)Nc2nccs2)c2cc(F)ccc2O)C3)c1 (single isomer, unassigned) [Example 256] | 6.1 µM | 14 µM | 2.5 µM | 1.4 µM | C (>80% EGFR protein remaining after 72 hours of incubation with the test compound at a concentration of 300 nM) | C (>80% EGFR protein remaining after 72 hours of incubation with the test compound at a concentration of 300 nM)
11 | Cc1ncsc1-c1ccc([C@H](C)NC(=O)[C@H]2C[C@H](O)CN2C(=O)[C@@H](NC(=O)COCCCC#Cc2cccc3c2C(=O)N(C(C(=O)Nc2nccs2)c2cc(F)ccc2O)C3)C(C)(C)C)cc1 (stereo partly drawn) [compound 92] | 3.1 µM | 6.2 µM | 9.8 µM | 1.1 µM | C (>80% EGFR protein remaining after 72 hours of incubation with the test compound at a concentration of 300 nM) | C (>80% EGFR protein remaining after 72 hours of incubation with the test compound at a concentration of 300 nM)
12 | O=C1CCC(N2C(=O)c3cccc(NCCOCCOCCOCCOCCOCC#Cc4cccc5c4C(=O)N([C@@H](C(=O)Nc4nccs4)c4cc(F)ccc4O)C5)c3C2=O)C(=O)N1 (stereo partly drawn) [compound 267] | 30 µM | 30 µM | 30 µM | 1.4 µM | C (>80% EGFR protein remaining after 72 hours of incubation with the test compound at a concentration of 300 nM) | C (>80% EGFR protein remaining after 72 hours of incubation with the test compound at a concentration of 300 nM)
13 | Cc1ncsc1-c1ccc([C@H](C)NC(=O)[C@H]2C[C@H](O)CN2C(=O)[C@@H](NC(=O)COCCCOCCCC#Cc2cccc3c2C(=O)N(C(C(=O)Nc2nccs2)c2cc(F)ccc2O)C3)C(C)(C)C)cc1 (stereo partly drawn) [compound 93] | 3.3 µM | 3.5 µM | 11 µM | 0.53 µM | C (>80% EGFR protein remaining after 72 hours of incubation with the test compound at a concentration of 300 nM) | C (>80% EGFR protein remaining after 72 hours of incubation with the test compound at a concentration of 300 nM)
